{
  "source": "patent US20230233522A1",
  "about": "“COMPOSITIONS AND METHODS FOR TREATING EPILEPSY, SEIZURES AND OTHER CONDITIONS” (TULEX PHARMACEUTICALS INC., priority 2019, published 2023)",
  "origin": "cited, not measured here",
  "data": [
    {"smiles": "CC1(C)O[C@@H]2[C@@H](CO[C@@]3(COS(N)(=O)=O)OC(C)(C)O[C@@H]23)O1", "note": "[Topiramate, 2,3:4,5-Di-O-isopropylidine-β-D-fructopyranose sulfamate]", "values": [
      {"measurement": "solubility in water", "result": "about 9.8 mg/ml"}
    ]}
  ]
}
